System: flank sebaceous glands of golden hamster
Experiment: In vivo efficacy on acne in female golden hamsters (growth of sebaceous plaques induced by testosterone propionate)
Details: skin smear once a day, 21 days
From the text: Activity Assay Example 7: In Vivo Efficacy of Compounds on Acne in Female Golden Hamsters
1. Test object: The flank sebaceous glands of golden hamster are androgen-dependent organs, and testosterone propionate (male hormone) promotes the enlargement of sebaceous glands. This experiment is mainly to study the inhibitory effect of CB-03-01 (positive drug), Flutamide (positive drug) and the compound on sebaceous gland enlargement in female golden hamster acne model (androgen dependence), to further observe the in vivo drug efficacy of the compound, to provide the basis for clinical trials of androgen-induced acne symptoms.
Androgen (Testosterone Propionate-TP); CB-03-01 (Clascoterone, CAS No. 19608-29-8); □ Flutamide (Flutamide, CAS No. 13311-84-7); compound A46 of the present invention.
2.2 Experimental Animals, See Table 4 for Details
2.3 Administration Vehicle: Acetone. 3. Experimental Design
In this experiment, from 72 female golden hamsters, according to the size and body weight of sebaceous glands, golden hamsters were evenly distributed to each group, 6 mice per group, a total of 7 groups, and they were administered continuously for 21 days.
According to the protocol in the table, […] of drug was administered each time, it was evenly smeared on the sebaceous glands, and administered once a day.
Animal grouping and status observation: Before grouping, the body weight was weighed, and the sebaceous glands on both sides were shaved for the observation of the size of sebaceous glands. Animals were observed twice a day in the morning and afternoon during the administration period. On the 21st day after administration, the size of sebaceous glands and the body weight of animals were observed and recorded.
The size of the sebaceous glands is expressed by the area, and the vernier caliper recorded its long side (a) and short side (b), and the area of the sebaceous glands (S) is obtained from the formula for calculating the area of a rectangle. In model group and administration group, ΔS=S−S(vehicle). Growth inhibition rate (%)=(ΔS(acetone testosterone group)−ΔS (administration group))/ΔS(acetone testosterone group)*100%.

Q: How did the “The inhibition rate of the growth of sebaceous plaques (%)” value (“The inhibition rate of the growth … (%)” for short) (100 μg (0.4%) + testosterone propionate 12 μg) turn out when `Cc1ncsc1-c1ccc(CNC(=O)[C@@H]2C[C@@H](O)CN2C(=O)[C@@H](NC(=O)COCCCCOc2ccc(-c3ccc(N4C(=S)N(c5ccc(C#N)c(C(F)(F)F)c5F)C(=O)C4(C)C)cn3)cc2)C(C)(C)C)cc1` [Compound A46] was run?
A: Its value is 19.24%.

Q: What about the “The inhibition rate of the growth … (%)” value (200 μg (0.8%) + testosterone propionate 12 μg) of the same compound?
A: The value was 35.20%.

Q: What about the “The inhibition rate of the growth … (%)” value (400 μg (1.6%) + testosterone propionate 12 μg) of the same compound?
A: Its value is 49.54%.

Q: And the “The inhibition rate of the growth … (%)” value (800 μg (3.2%) + testosterone propionate 12 μg)?
A: Its value is 51.61%.

Reference: patent US12606552B2, “Bifunctional compound, preparation method therefor, and use thereof” (SUZHOU KINTOR PHARMACEUTICALS, INC., priority 2020, dated 2026)
